Experimental data: US20250288583A1, “Treatment of Mucus Hypersecretion” (priority 2024, published 2025)

Columns and labels:
hTRPM8 channel = biological target: T1, hTRPM8 channel (Homo sapiens, UniProt Q7Z2W7); test: TRPM8 receptor assay, calcium entry (Fluo-8, FLIPR) in transfected CHO cells; type: cell-based; conditions: for Potency Relative to L-menthol: ratio of TRPM8 EC50 values, menthol = 1.0
T1 construct: host or cells: CHO cells

oral cavity = conditions: Johnson et al., 2018; cited from earlier work
Stability of the solid = type: physicochemical; conditions: room temperature and physiological pH

T1 sequence (Q7Z2W7 whole entry): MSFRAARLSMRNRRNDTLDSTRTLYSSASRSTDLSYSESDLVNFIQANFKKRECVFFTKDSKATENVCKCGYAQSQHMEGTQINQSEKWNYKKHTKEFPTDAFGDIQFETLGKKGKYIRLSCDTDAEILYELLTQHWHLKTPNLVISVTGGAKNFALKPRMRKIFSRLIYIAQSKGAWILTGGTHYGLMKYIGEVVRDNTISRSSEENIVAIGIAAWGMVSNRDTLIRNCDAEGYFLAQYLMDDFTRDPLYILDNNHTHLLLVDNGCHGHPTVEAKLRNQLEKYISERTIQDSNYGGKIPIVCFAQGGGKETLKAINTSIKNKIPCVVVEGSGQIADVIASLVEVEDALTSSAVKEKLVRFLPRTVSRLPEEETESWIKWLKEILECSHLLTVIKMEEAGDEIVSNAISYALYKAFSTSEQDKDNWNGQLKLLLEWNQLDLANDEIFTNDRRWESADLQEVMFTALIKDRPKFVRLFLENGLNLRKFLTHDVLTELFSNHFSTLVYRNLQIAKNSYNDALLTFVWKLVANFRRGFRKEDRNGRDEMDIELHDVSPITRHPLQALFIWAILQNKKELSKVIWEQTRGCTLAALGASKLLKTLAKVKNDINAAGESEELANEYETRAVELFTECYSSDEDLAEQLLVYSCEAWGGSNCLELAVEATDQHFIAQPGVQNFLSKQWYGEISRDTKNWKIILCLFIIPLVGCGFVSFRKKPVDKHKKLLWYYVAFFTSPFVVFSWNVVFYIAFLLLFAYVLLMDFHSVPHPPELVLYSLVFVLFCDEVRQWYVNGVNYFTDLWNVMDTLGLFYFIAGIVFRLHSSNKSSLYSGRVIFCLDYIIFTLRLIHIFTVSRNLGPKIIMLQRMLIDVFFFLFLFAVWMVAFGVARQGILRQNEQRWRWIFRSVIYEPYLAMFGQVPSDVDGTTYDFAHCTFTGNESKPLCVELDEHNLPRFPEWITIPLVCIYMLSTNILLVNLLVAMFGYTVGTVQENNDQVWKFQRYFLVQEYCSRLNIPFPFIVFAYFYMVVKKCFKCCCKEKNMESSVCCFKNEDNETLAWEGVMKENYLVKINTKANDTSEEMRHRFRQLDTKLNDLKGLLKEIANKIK

SMILES | Activity on TRPM8 transfected cells (hTRPM8 channel; FIG. 5) | Potency Relative to L-menthol (hTRPM8 channel) | Sensory qualities in the oral cavity compared with WS-5 (oral cavity) | Stability (Stability of the solid) | EC50 (hTRPM8 channel; CHO cells transfected with hTRPM8, Fluo-8 calcium kit, FLIPR) [nM]
CC(C)OC(=O)CNC(=O)[C@@H]1C[C@H](C)CC[C@H]1C(C)C [GlyOiPr, [((1R,2S,5R)-2-isopropyl-5-methyl-cyclohexanecarbonyl)-amino]-acetic acid isopropyl ester] | active | 7.6 | more refreshing and less bitter than WS-5 | stable at room temperature and physiological pH | –
CC(C)OC(=O)[C@@H](C)NC(=O)[C@@H]1C[C@H](C)CC[C@H]1C(C)C [D-Ala-OiPr, (R)-2-[((1R,2S,5R)-2-isopropyl-5-methyl-cyclohexanecarbonyl)amino]-propionic acid i-propyl ester] | – | 14.6 | – | – | 260
